# Results published in paper PMC3019153 (PLoS ONE, 2011).
# “And” between values parts separate entries of the source, which are not always exact repeats. Equal values may be shown once. “Also recorded” adds a separate entry of the source.
# Assays:
# [1] = biological target: T1, mycobacterial dephosphocoenzyme A kinase D32A mutant (Mycobacterium tuberculosis, UniProt P9WPA3, D32A); type: biochemical
# [2] = biological target: T2, mycobacterial dephosphocoenzyme A kinase K14A mutant (Mycobacterium tuberculosis, UniProt P9WPA3, K14A); type: biochemical
# [3] = biological target: mycobacterial dephosphocoenzyme A kinase L114A mutant (Mycobacterium tuberculosis, UniProt P9WPA3, L114A); type: biochemical
# [4] = biological target: mycobacterial dephosphocoenzyme A kinase G8A mutant (Mycobacterium tuberculosis, UniProt P9WPA3, G8A); type: biochemical
# [5] = biological target: mycobacterial dephosphocoenzyme A kinase R140A mutant (Mycobacterium tuberculosis, UniProt P9WPA3, R140A); type: biochemical
# [6] = biological target: T3, mycobacterial dephosphocoenzyme A kinase D32E mutant (Mycobacterium tuberculosis, UniProt P9WPA3, D32E); type: biochemical
# [7] = biological target: T4, mycobacterial dephosphocoenzyme A kinase R140K mutant (Mycobacterium tuberculosis, UniProt P9WPA3, R140K); type: binding
# [8] = biological target: T1, mycobacterial dephosphocoenzyme A kinase D32A mutant; type: binding; conditions: pH 7.8
# [9] = biological target: T2, mycobacterial dephosphocoenzyme A kinase K14A mutant; type: binding; conditions: pH 7.8
# [10] = biological target: T5, wild type mycobacterial dephosphocoenzyme A kinase (CoaE) (Mycobacterium tuberculosis, UniProt P9WPA3); type: biochemical
# T5 sequence (P9WPA3 1-407): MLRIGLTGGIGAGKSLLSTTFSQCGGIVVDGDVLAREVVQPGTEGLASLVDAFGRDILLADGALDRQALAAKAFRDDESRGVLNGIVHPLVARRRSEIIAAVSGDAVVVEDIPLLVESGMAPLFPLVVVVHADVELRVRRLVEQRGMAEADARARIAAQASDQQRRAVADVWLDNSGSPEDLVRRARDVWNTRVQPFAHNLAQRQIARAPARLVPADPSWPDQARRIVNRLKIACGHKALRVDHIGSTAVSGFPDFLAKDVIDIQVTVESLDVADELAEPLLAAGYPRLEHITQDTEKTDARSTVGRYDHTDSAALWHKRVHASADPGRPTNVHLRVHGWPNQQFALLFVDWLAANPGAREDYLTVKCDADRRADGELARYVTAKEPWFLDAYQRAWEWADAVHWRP
# [11] = biological target: T5, wild type mycobacterial dephosphocoenzyme A kinase (CoaE); type: binding; conditions: pH 7.8
# [12] = biological target: T4, mycobacterial dephosphocoenzyme A kinase R140K mutant; type: biochemical
# [13] = biological target: T3, mycobacterial dephosphocoenzyme A kinase D32E mutant; type: binding; conditions: pH 7.8
Structure (SMILES),Kcat [1],Kcat [2],Km [2],Kcat [3],Km [3],Kcat [4],Km [4],Kcat [5],Kcat [6],Km [6],increase in the affinity of the mutant enzyme [6],ΔH [9],ΔS [9],also measured
Nc1ncnc2c1ncn2[C@@H]1O[C@H](COP(=O)(O)OP(=O)(O)OP(=O)(O)O)[C@@H](O)[C@H]1O [ATP],0.014 s⁻¹,2.34 and 2.34 min^−1,86.7 µM,0.0192 s⁻¹,63.9 µM,0.04272 s⁻¹,59.8 µM,nr,0.0666 s⁻¹,34.5 µM,60.58%,–,–,"Kcat, % of the WT [1]: about 28%; increase in the Km [2]: 50%; reduction in the Kcat [2]: 19%; Km [5]: nr; binding to ATP (in words) [7]: poor binding; also recorded: very poor binding"
"CC(C)(COP(=O)(O)OP(=O)(O)OC[C@H]1O[C@@H](n2cnc3c(N)ncnc32)[C@H](O)[C@@H]1O)[C@@H](O)C(=O)NCCC(=O)NCCS [DCoA, dephosphocoenzyme A]",0.00171 s⁻¹,1.532 min⁻¹,75.8 µM,0.0569 s⁻¹,80.9 µM,0.02572 s⁻¹,37.2 µM,nr,0.0327 s⁻¹,21.7 µM,62.17%,-3576 calM^−1 and −3576(±115.7) calM^−1,5.73(±0.37) calM^−1K^−1,"ΔH [8]: −1559(±72.9) calM^−1; ΔS [8]: −35.1(±0.98) calM^−1K^−1; Ka [9]: 1.32(±1.45E3) M^−1*10^−4; Km [1]: 501 µM; increase in the Km [1]: 15 fold; Kcat [10]: 0.0257 s⁻¹ and 0.0293 s⁻¹; ΔH [11]: −3719((±201.5) calM^−1; ΔS [11]: 6.32(±0.34) calM^−1K^−1; binding of the leading substrate (in words) [7]: reasonably well; Ka ([7]; pH 7.8): 2.17(±1.23E3) M^−1*10^−4; ΔH ([7]; pH 7.8): −7723 calM^−1; ΔS ([7]; pH 7.8): −6.5((±0.49) calM^−1K^−1; Kcat [12]: 0.00755 s⁻¹; Kcat, % of the WT [12]: ~15%; Km [12]: 181 µM; Ka [13]: 2.12 (±2.61E3) M^−1*10^−4; ΔH [13]: −4355(±138.7) calM^−1; ΔS [13]: 4.94(±0.42) calM^−1K^−1"
"Nc1ncnc2c1ncn2[C@@H]1O[C@H](CO[P@](=O)(O)O[P@](=O)(O)O[P@@](=O)(O)S)[C@@H](O)[C@H]1O [NHATP, ATP-γS]",–,–,–,–,–,–,–,–,–,–,–,−1826 calM^−1 and −1826(±195.7) calM^−1,13.8 calM^−1K^−1 and 13.8(±0.59) calM^−1K^−1,N (binding) ([7]; pH 7.8): No binding
